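Following 48 hours of exposure in 96-well plates, responses at five concentrations were used to interpolate endpoints linearly. TGI is the concentration that stops growth completely.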
Columns and labels:
Assay in all cases: DTP human tumour cell line panel, 48 h
SW-620 colon = system: SW-620 colon
HCC-2998 colon = system: HCC-2998 colon
LOX IMVI melanoma = system: LOX IMVI melanoma
K-562 leukemia = system: K-562 leukemia
OVCAR-5 ovarian = system: OVCAR-5 ovarian
MDA-N = system: MDA-N
M14 melanoma = system: M14 melanoma
COLO 205 colon = system: COLO 205 colon
HCT-15 colon = system: HCT-15 colon
HT29 colon = system: HT29 colon
SK-OV-3 ovarian = system: SK-OV-3 ovarian
KM12 colon = system: KM12 colon
UO-31 renal = system: UO-31 renal
SNB-19 CNS = system: SNB-19 CNS
BT-549 breast = system: BT-549 breast
MALME-3M melanoma = system: MALME-3M melanoma
SF-268 CNS = system: SF-268 CNS
PC-3 prostate = system: PC-3 prostate
SF-295 CNS = system: SF-295 CNS
SR leukemia = system: SR leukemia

| SMILES | TGI (SW-620 colon) [µM] | TGI (HCC-2998 colon) [µM] | TGI (LOX IMVI melanoma) [µM] | TGI (K-562 leukemia) [µM] | TGI (OVCAR-5 ovarian) [µM] | TGI (MDA-N) [µM] | TGI (M14 melanoma) [µM] | TGI (COLO 205 colon) [µM] | TGI (HCT-15 colon) [µM] | TGI (HT29 colon) [µM] | TGI (SK-OV-3 ovarian) [µM] | TGI (KM12 colon) [µM] | TGI (UO-31 renal) [µM] | TGI (SNB-19 CNS) [µM] | TGI (BT-549 breast) [µM] | TGI (MALME-3M melanoma) [µM] | TGI (SF-268 CNS) [µM] | TGI (PC-3 prostate) [µM] | TGI (SF-295 CNS) [µM] | TGI (SR leukemia) [µM] |
| --- | --- | --- | --- | --- | --- | --- | --- | --- | --- | --- | --- | --- | --- | --- | --- | --- | --- | --- | --- | --- |
| CN1[C@@H]2CCCC[C@H]2N(C)P1(=O)C(O)/C=C/c1ccccc1 (some centres not stated) | > 100 | > 100 | > 100 | > 100 | > 100 | > 100 | > 100 | > 100 | > 100 | > 100 | > 100 | > 100 | > 100 | > 100 | > 100 | > 100 | > 100 | > 100 | > 100 | – |
| O=C1c2n[nH]nc2C(=O)c2n[nH]nc21 | > 100 | > 100 | > 100 | > 100 | > 100 | > 100 | > 100 | > 100 | > 100 | > 100 | > 100 | > 100 | > 100 | > 100 | – | – | > 100 | > 100 | > 100 | > 100 |
| CCn1nc(-c2ccccc2)c2c1N(C)c1ccccc1-n1c(-c3ccccc3)nnc1-2 | 29.6 | 29.3 | 33 | > 100 | 33.5 | 28.9 | 32.1 | 48.5 | 23.4 | – | 38.5 | – | 40.5 | 32.4 | – | – | 32.5 | 27.7 | – | > 100 |
| c1ccc2c(c1)CCN(C1=NCCO1)C2 | > 10 | > 10 | > 10 | > 10 | > 10 | > 10 | > 10 | > 10 | > 10 | > 10 | > 10 | > 10 | > 10 | > 10 | > 10 | > 10 | > 10 | > 10 | > 10 | – |
| O=C1CSC(c2cccc(Cl)c2)N1c1c(O)c(Cl)cc(Br)c1Cl (configuration not stated) | 32.7 | – | 29.8 | > 100 | > 100 | 34.1 | > 100 | 61.2 | 28.3 | > 100 | > 100 | > 100 | 28.9 | > 100 | – | > 100 | > 100 | > 100 | > 100 | 70.6 |
| COc1ccc(/C=C2\Sc3nnc(C)n3N=C2c2cc(F)c(Cl)cc2Cl)cc1OC | > 100 | 32.6 | 31.4 | 19.5 | 31.2 | 17.6 | 27.5 | 54.3 | 21.9 | 26.6 | 76.9 | 33.1 | 22.6 | 11.8 | 34.1 | 37.1 | 50.9 | 37.7 | 53.6 | – |
| C=C(C)[C@@H]1CC[C@]2(CO)CC[C@]3(C)[C@H](CC[C@@H]4[C@@]5(C)CC[C@H](O)C(C)(C)[C@@H]5CC[C@]43C)[C@@H]12 | 43.5 | – | 28.4 | > 100 | > 100 | > 100 | > 100 | – | > 100 | 48.6 | – | > 100 | 26 | – | 39.8 | > 100 | > 100 | 84.3 | 27.8 | > 100 |
| Cc1ncc([N+](=O)[O-])n1CCNS(=O)(=O)CCCn1ccnc1[N+](=O)[O-] | > 100 | – | > 100 | > 100 | > 100 | > 100 | > 100 | > 100 | > 100 | > 100 | > 100 | > 100 | > 100 | – | > 100 | > 100 | > 100 | > 100 | > 100 | > 100 |
| NC(CCl)=NC1CN2CCC1CC2 (configuration not stated) | > 100 | – | > 100 | > 100 | > 100 | > 100 | > 100 | 73.8 | > 100 | > 100 | > 100 | > 100 | – | > 100 | > 100 | > 100 | > 100 | > 100 | > 100 | > 100 |
| CC(C)=NNc1cnnc2ccc([N+](=O)[O-])cc12 | > 100 | – | – | – | > 100 | > 100 | > 100 | > 100 | > 100 | > 100 | > 100 | > 100 | > 100 | > 100 | > 100 | > 100 | > 100 | > 100 | > 100 | > 100 |

Source: PubChem BioAssay (NCI)
